# Measured values taken from the supplement of paper PMC10307832.
# How the values were obtained:
# Test in all cases: relative viability (nuclei count vs DMSO), 5 days (fraction); higher = more cells survive
# NCI-H1299 = system: NCI-H1299
# In short: (§1)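 Each reported value is a median over duplicate plates. It expresses relative viability: treated-well nuclei count divided by vehicle-well nuclei count. Lung cancer cell lines in 1536-well plates were dosed by pin tool a day after seeding, alone with one drug or with a fixed anchor-drug dose plus five library-drug doses (not always all listed) in √10 steps, and nuclei were counted after 5 days.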
# NCI-H1650 = system: NCI-H1650
# In short: as §1
# A-427 = system: A-427
# In short: as §1
# SK-MES-1 = system: SK-MES-1
# In short: as §1
# NCI-H1975 = system: NCI-H1975
# In short: as §1
# NCI-H1792 = system: NCI-H1792
# In short: as §1
# NCI-H2347 = system: NCI-H2347
# In short: as §1
# HCC-78 = system: HCC-78
# In short: as §1
# COR-L23 = system: COR-L23
# In short: as §1
# EPLC-272H = system: EPLC-272H
# In short: as §1
# HCC-366 = system: HCC-366
# In short: as §1
# HCC-44 = system: HCC-44
# In short: as §1
# NCI-H647 = system: NCI-H647
# In short: as §1
# A549 = system: A549
# In short: as §1
# NCI-H460 = system: NCI-H460
# In short: as §1
# COR-L 105 = system: COR-L 105
# In short: as §1
# NCI-H1437 = system: NCI-H1437
# In short: as §1
# SW 900 = system: SW 900
# In short: as §1
# IA-LM = system: IA-LM
# In short: as §1
# NCI-H520 = system: NCI-H520
# In short: as §1
# NCI-H358 = system: NCI-H358
# In short: as §1
# EKVX = system: EKVX
# In short: as §1
# NCI-H2009 = system: NCI-H2009
# In short: as §1
# LK-2 = system: LK-2
# In short: as §1
# HOP-62 = system: HOP-62
# In short: as §1
smiles,measurement,setting,value
Nc1cccc2c1CN(C1CCC(=O)NC1=O)C2=O (stereo unspecified) [Lenalidomide] + O=C(c1cc(Cc2n[nH]c(=O)c3ccccc23)ccc1F)N1CCN(C(=O)C2CC2)CC1 [Olaparib] (partner 8 µM),relative viability,NCI-H1299; first compound 0.253 µM,0.938
same,relative viability,NCI-H1299; first compound 0.8 µM,1.03
same,relative viability,NCI-H1299; first compound 2.53 µM,1
same,relative viability,NCI-H1299; first compound 8 µM,1.07
same,relative viability,NCI-H1650; first compound 0.253 µM,0.681
same,relative viability,NCI-H1650; first compound 0.8 µM,0.712
same,relative viability,NCI-H1650; first compound 2.53 µM,0.945
same,relative viability,NCI-H1650; first compound 8 µM,0.933
same,relative viability,A-427; first compound 0.253 µM,0.713
same,relative viability,A-427; first compound 0.8 µM,0.504
same,relative viability,A-427; first compound 2.53 µM,0.838
same,relative viability,A-427; first compound 8 µM,0.79
same,relative viability,SK-MES-1; first compound 0.253 µM,0.717
same,relative viability,SK-MES-1; first compound 0.8 µM,0.691
same,relative viability,SK-MES-1; first compound 2.53 µM,0.715
same,relative viability,SK-MES-1; first compound 8 µM,0.806
same,relative viability,NCI-H1975; first compound 0.253 µM,0.912
same,relative viability,NCI-H1975; first compound 0.8 µM,0.694
same,relative viability,NCI-H1975; first compound 2.53 µM,0.876
same,relative viability,NCI-H1975; first compound 8 µM,0.995
same,relative viability,NCI-H1792; first compound 0.253 µM,0.609
same,relative viability,NCI-H1792; first compound 0.8 µM,0.378
same,relative viability,NCI-H1792; first compound 2.53 µM,0.588
same,relative viability,NCI-H1792; first compound 8 µM,0.485
same,relative viability,NCI-H2347; first compound 0.253 µM,0.62
same,relative viability,NCI-H2347; first compound 0.8 µM,0.567
same,relative viability,NCI-H2347; first compound 2.53 µM,0.579
same,relative viability,NCI-H2347; first compound 8 µM,0.509
same,relative viability,HCC-78; first compound 0.253 µM,0.861
same,relative viability,HCC-78; first compound 0.8 µM,0.858
same,relative viability,HCC-78; first compound 2.53 µM,0.87
same,relative viability,HCC-78; first compound 8 µM,0.814
same,relative viability,COR-L23; first compound 0.253 µM,0.329
same,relative viability,COR-L23; first compound 0.8 µM,0.316
same,relative viability,COR-L23; first compound 2.53 µM,0.356
same,relative viability,COR-L23; first compound 8 µM,0.393
same,relative viability,EPLC-272H; first compound 0.253 µM,0.777
same,relative viability,EPLC-272H; first compound 2.53 µM,0.613
same,relative viability,EPLC-272H; first compound 8 µM,0.657
same,relative viability,HCC-366; first compound 0.253 µM,0.328
same,relative viability,HCC-366; first compound 0.8 µM,0.309
same,relative viability,HCC-366; first compound 2.53 µM,0.373
same,relative viability,HCC-366; first compound 8 µM,0.394
same,relative viability,HCC-44; first compound 0.253 µM,0.981
same,relative viability,HCC-44; first compound 0.8 µM,0.873
same,relative viability,HCC-44; first compound 2.53 µM,1.02
same,relative viability,HCC-44; first compound 8 µM,1.05
same,relative viability,NCI-H647; first compound 0.253 µM,0.525
same,relative viability,NCI-H647; first compound 0.8 µM,0.543
same,relative viability,NCI-H647; first compound 2.53 µM,0.65
same,relative viability,NCI-H647; first compound 8 µM,0.566
same,relative viability,A549; first compound 0.253 µM,0.401
same,relative viability,A549; first compound 0.8 µM,0.101
same,relative viability,A549; first compound 2.53 µM,0.22
same,relative viability,A549; first compound 8 µM,0.228
same,relative viability,NCI-H460; first compound 0.253 µM,0.394
same,relative viability,NCI-H460; first compound 0.8 µM,0.397
same,relative viability,NCI-H460; first compound 2.53 µM,0.438
same,relative viability,NCI-H460; first compound 8 µM,0.374
same,relative viability,COR-L 105; first compound 0.253 µM,0.737
same,relative viability,COR-L 105; first compound 0.8 µM,0.712
same,relative viability,COR-L 105; first compound 2.53 µM,0.748
same,relative viability,COR-L 105; first compound 8 µM,0.774
same,relative viability,NCI-H1437; first compound 0.253 µM,0.612
same,relative viability,NCI-H1437; first compound 0.8 µM,0.629
same,relative viability,NCI-H1437; first compound 2.53 µM,0.638
same,relative viability,NCI-H1437; first compound 8 µM,0.677
same,relative viability,SW 900; first compound 2.53 µM,0.913
same,relative viability,SW 900; first compound 8 µM,0.858
same,relative viability,IA-LM; first compound 0.253 µM,0.874
same,relative viability,IA-LM; first compound 0.8 µM,0.799
same,relative viability,IA-LM; first compound 2.53 µM,0.777
same,relative viability,IA-LM; first compound 8 µM,0.728
same,relative viability,NCI-H520; first compound 0.253 µM,0.368
same,relative viability,NCI-H520; first compound 0.8 µM,0.359
same,relative viability,NCI-H520; first compound 2.53 µM,0.375
same,relative viability,NCI-H520; first compound 8 µM,0.35
same,relative viability,NCI-H358; first compound 0.8 µM,0.607
same,relative viability,NCI-H358; first compound 2.53 µM,0.652
same,relative viability,NCI-H358; first compound 8 µM,0.665
same,relative viability,EKVX; first compound 0.253 µM,0.776
same,relative viability,EKVX; first compound 0.8 µM,0.754
same,relative viability,EKVX; first compound 2.53 µM,0.87
same,relative viability,EKVX; first compound 8 µM,0.786
same,relative viability,NCI-H2009; first compound 0.253 µM,0.623
same,relative viability,NCI-H2009; first compound 0.8 µM,0.654
same,relative viability,NCI-H2009; first compound 2.53 µM,0.827
same,relative viability,NCI-H2009; first compound 8 µM,0.693
same,relative viability,LK-2; first compound 0.253 µM,0.881
same,relative viability,LK-2; first compound 0.8 µM,0.413
same,relative viability,LK-2; first compound 2.53 µM,0.571
same,relative viability,LK-2; first compound 8 µM,0.387
same,relative viability,HOP-62; first compound 0.253 µM,0.38
same,relative viability,HOP-62; first compound 0.8 µM,0.366
same,relative viability,HOP-62; first compound 2.53 µM,0.537
same,relative viability,HOP-62; first compound 8 µM,0.406
